Experimental data reported in patent US20150197492A1, “NOVEL INDENO[1,2-c]QUINOLIN-11-ONE DERIVATIVES, PREPARATION METHOD AND APPLICATION THEREOF” (National Defense Medical Center, priority 2014, published 2015).

Key:
human PC-3 cells = assay: Sulforhodamine B (SRB) assay, cytotoxicity against PC-3 cells; type: cell-based; details: SRB assay, PC-3 cells
Method: Add 5% Fetal Bovine Serum (FBS) to 96-well plate and fix the cells with 10% TCA after 24 hours of incubation and add the compound (T0). Add DMSO and culture for another 48 hours and the cells are fixed in 0.4% (W/V), 10% TCA and SRB, and […]. Excess SRB is washed off by 1% acetic acid and cells stained with SRB are dissolved in 10 mmol/L Trizma base. The absorbance is measured at 515 nm. The treatment time is 0 (T0), control growth (C) and the increase of the compound (Tx) in the cells are shown below and are used to calculate the increase of the concentration of the compound in percentage. Growth inhibition (GI %) is calculated using the following formula 100−[(TX−T0)/(C−T0)]×100. The 50% growth inhibition concentration (IC50) is used to confirm the concentration of compound and thus results in 50% reduction of the treated cells which control the amount of total protein.
This part of experimental results are SRB assays measuring cytotoxicity of the 26 synthesized compounds against human PC-3 cells and are summarized in Table 1 and 2.

Solubility in DMSO = type: physicochemical; details: order SJ-2<SJ-24<SJ-3<SJ-11
Source text: The solubility of the four compounds in DMSO is poor, SJ-2<SJ-24<SJ-3<SJ-11, and therefore it is estimated and this is the reason why the three compounds which have previously proven to be effective against PC-3 cell line by SRB assays are ineffective in this experiment.

| melting point [°C] | solubility in DMSO (Solubility in DMSO) | Structure (SMILES) | Toxicity (%) (human PC-3 cells) | GI % (10 μM) (human PC-3 cells) [%] |
| --- | --- | --- | --- | --- |
| 149 to 150 | – | O=C1c2cc(Cl)ccc2-c2c(N3CCCC3)nc3ccccc3c21 [SJ-4, 9-Chloro-6-(pyrrolidin-1-yl)-11H-indeno[1,2-c]quinolin-11-one] | 47.2 | 100 |
| 191 to 192 | – | O=C1c2cc(Cl)ccc2-c2c(N3CCCCC3)nc3ccccc3c21 [SJ-5, 9-Chloro-6-(piperidin-1-yl)-11H-indeno[1,2-c]quinolin-11-one] | 22.2 | 100 |
| 146 to 147 | – | O=C1c2cc(Cl)ccc2-c2c(N3CCCCCC3)nc3ccccc3c21 [SJ-7, 6-(Azepan-1-yl)-9-chloro-11H-indeno[1,2-c]quinolin-11-one] | 41.7 | 100 |
| 182 to 184 | – | CCN1CCN(c2nc3ccccc3c3c2-c2ccc(Cl)cc2C3=O)CC1 [SJ-13, 9-Chloro-6-(4-ethylpiperazin-1-yl)-11H-indeno[1,2-c]quinolin-11-one] | 29.7 | 100 |
| 174 to 175 | – | O=C1c2cc(Cl)ccc2-c2c(N3CCC(N4CCCCC4)CC3)nc3ccccc3c21 [SJ-15, 9-Chloro-6-(4-(piperidin-1-yl)piperidin-1-yl)-11H-indeno[1,2-c]quinolin-11-one] | 0 | 98.83 |
| 208 to 209 | – | CN1CCC(N2CCN(c3nc4ccccc4c4c3-c3ccc(Cl)cc3C4=O)CC2)CC1 [SJ-21, 9-Chloro-6-(4-(1-methylpiperidin-4-yl)piperazin-1-yl)-11H-inden o[1,2-c]quinolin-11-one] | 66 | 100 |
| 149 to 151 | poor | O=C1c2cc(Cl)ccc2-c2c(N3CCC(CCCC4CCNCC4)CC3)nc3ccccc3c21 [SJ-24, 9-Chloro-6-(4-(3-(piperidin-4-yl)propyl)piperidin-1-yl)-11H-indeno[1,2-c]quinolin-11-one] | 63.8 | 100 |

| Structure (SMILES) | melting point [°C] | solubility in DMSO (Solubility in DMSO) | Toxicity (%) (human PC-3 cells) | GI % (10 μM) (human PC-3 cells) [%] |
| --- | --- | --- | --- | --- |
| O=C1c2cc(Cl)ccc2-c2c(N3CCN(Cc4ccccc4)CC3)nc3ccccc3c21 [SJ-17, 6-(4-Benzylpiperazin-1-yl)-9-chloro-11H-indeno[1,2-c]quinolin-11-one] | 178 to 180 | – | 0 | 73.53 |
| O=C1c2cc(Cl)ccc2-c2c(N3CCN(c4ccccc4F)CC3)nc3ccccc3c21 [SJ-18, 9-Chloro-6-(4-(2-fluorophenyl)piperazin-1-yl)-11H-indeno[1,2-c]quinolin-11-one] | 182 to 183 | – | 0 | 85.48 |
| COc1ccccc1N1CCN(c2nc3ccccc3c3c2-c2ccc(Cl)cc2C3=O)CC1 [SJ-19, 9-Chloro-6-(4-(2-methoxyphenyl)piperazin-1-yl)-11H-indeno[1,2-c]quinolin-11-one] | 129 to 131 | – | 8.5 | 100 |
| O=C1c2cc(Cl)ccc2-c2c(N3CCC4(CC3)OCCO4)nc3ccccc3c21 [SJ-22] | 218 to 219 | – | 42.6 | 100 |
